How the values were obtained:
[1] = system: Oxidatively competent cells; assay: SYTOX cell death assay in oxidatively competent cells treated with antimycin A; assay type: cell-based; conditions: for cell death when tested individually: highest concentration tested
Experimental: Oxidatively competent cells are prepared as described in Example 1. and Example 2.A and are seeded onto 96-well plates at 1×10^3/well or 2.5×10^3/well as passage 15. The cells are grown in DMEM with 10% FBS and 1.5 g/L sodium bicarbonate for 24 or 48 hours to reach 85% confluence. The cells are washed once with HBSS and then 100 μl of HBSS containing different concentration of AA (Sigma, Cat #A 8674) is added to the cells. AA is dissolved in DMSO to make a stock solution of 50 mM, then diluted with HBSS to 25, 12.5, 6.25, 3.125, and 1.56 μM for dose-response curves. The cells, with or without AA, are incubated at 37° C. in a 5% CO2 humidified incubator for 1 to 5 hours. The concentration of AA is chosen to induce 75% or 100% cell death as a screening dose to test the effect of agents to protect against AA- induced cell toxicity. The concentration of agents used for screening will be dependent upon the agents. Certain control groups contain 100 μl of HBSS only.
(§1) SYTOX Green nucleic acid stain is a high-affinity nucleic acid stain that easily penetrates cells with a compromised plasma membrane but will not cross the membrane of live cells. The nucleic acids of dead cells fluoresce bright green at 524 nm when excited with the 488 nm spectral source or with any other 450-500 nm source. […] In the cell viability assay chemical ischemia is created in cells and then cells are incubated with the SYTOX dye. The compound antimycin is used to simulate ischemia at the same time as stimulating the cells with forskolin. […] The assay is performed on cells grown in 96-well format allowing high throughput screening of compounds.
(§2) Compound(s) are mixed with the 1 μM SYTOX working solution and added to the washed cell culture wells. Fluorescence is measured at designated time points (488 nm excitation and 530 nm emission). All of the sample readings subtract the background readings, which is cell-free wells only containing HBSS buffer with SYTOX green dye. The data is compared to non-treated cells (control) and is expressed as mean±S.D. from 4 culture wells. SYTOX Green fluorescence units obtained from each group are corrected for basal fluorescence (cell-free wells with only HBSS and fluorescence reagent). Data are represented as mean±SD. A paired t-test is performed comparing treated groups (Toxin+Agent) with non-treated groups (Toxin only) after subtracting the control groups (HBSS only) for each data set. Comparisons among groups are statistically evaluated by two-tailed t-test (Graphpad Prism Software, version 2.0). Differences are considered significant at P<0.05.
Oxidatively competent cells were treated simultaneously with hesperetin, chrysin and 100 nM antimycin A2.C. The cells were treated with various low concentrations of hesperetin and various concentrations of chrysin (Sigma Chemical Co., cat. #C3018). Hesperetin, chrysin and antimycin A were mixed together before treating the cells. Cell viability was measured at time points up to 5 hours using SYTOX, as described in Example 2.F.
In experiments carried out in support of the invention, various concentrations of diosmin and alpha-tocopherol were tested for synergistic ability to ameliorate disruption of energy metabolism secondary to stress. Oxidatively competent cells were treated simultaneously with diosmin, alpha-tocopherol and antimycin A2.C. The cells were treated with various low concentrations of diosmin (Sigma Chemical Co., cat. #D3525) and various low concentrations of (+/−) alpha-tocopherol. Diosmin, alpha-tocopherol and antimycin were mixed together before treating cells. Cell viability was measured 4 hours after treatment using SYTOX. […] Likewise, the combination of disomin (11-100 μM) with 1.1 μg/ml (+/−) alpha tocopherol was synergistic. […] Diosmin alone provided no protection at a concentration of 100 μM. […] A combination of 100 μM diosmin and 11 μg/ml (+/−) alpha tocopherol was also synergistic. […]

GCL1 cells = assay: SYTOX cell death assay in GCL1 cells treated with antimycin A (chemical ischemia); assay type: cell-based, rat hepatoma cells (fao) / human fibroblasts (W138) hybrid; conditions: for reduction in cell death: control 82.9%
Text: At greater than 80% confluence, more than 80% of the cells participate in forming one or more phaselucent, spherical structures that are located between cells, termed bile canicular-like spaces. In contrast to the majority of cell lines maintained in culture which are fermentative, GCL1 cells, when at their maximal density and polarity, are highly oxidative (i.e., they can be readily killed by inhibitors of oxidative phosphorylation or electron transport uncouplers). […] These cells are amenable to use in high throughput screening (HTS) technology.
The cells, with or without AA, are incubated at 37° C. in a 5% CO2 humidified incubator for 1 to 5 hours. […] The concentration of agents used for screening will be dependent upon the agents. Certain control groups contain 100 μl of HBSS only.
as §1
Aliquot at 100 μl. This 10 mM stock is then diluted to 1 mM with DMSO and aliquoted at 25 μL. Both the 10 mM and the 1 mM are stored at −20° C. until use. […] Aliquot at 100 μl and store at −20° C. until use. iv.) HBSS-SYTOX-FORSKOLIN-ANTIMYCIN (H-S-F-A) solution: H-S-F-A solution is made up fresh prior to each assay in sterile 175 ml or 225 ml Falcon bottles. […]
Cells are grown in 96-well black plates (with or without clear bottoms) at a density of 1000 cells per well for 24 hours. The necessary number of 96-well plates containing the specific cell type are obtained and placed in the laminar flow safety cabinet. A sterile microtiter basin is filled with the appropriate volume of pre-warmed 1×HBSS. Using aseptic technique and an 8-channel aspirator, the media is carefully removed from the cells and replaced with 200 μl of 1×HBSS. This is done as quickly as possible to prevent the cells drying out. The plates are then placed in the humidified 37° C. incubators of the Biomek 2000 Side Loader. Four plates are washed at a time so as to minimize the time that the cells are sitting in 1×HBSS prior to addition of the H-S-A-compound test solution.
as §2
Hesperetin, diosmin, luteolin and quercetin were tested individually for their ability to counteract disruptions of normal energy metabolism. Flavonoids were commercially obtained, generally from Sigma Chemical Co., St. Louis, Mo., and/or Aldrich Chemical Co., Milwaukee, Wis.

[2] = cited from earlier work; for abnormalities observed for a week: administered orally to mice at 100 mg/kg (U.S. Pat. No. 5,650,433)
[3] = flavonoid 25 μM, antimycin A 100 nM, 4 hours
[4] = flavonoid 50 μM, antimycin A 100 nM, 4 hours
[5] = flavonoid 100 μM, antimycin A 100 nM, 4 hours
[6] = flavonoid 200 μM, antimycin A 100 nM, 4 hours
[7] = flavonoid 400 μM, antimycin A 100 nM, 4 hours

Compound: Cc1c(C)c2c(c(C)c1O)CCC(C)(CCCC(C)CCCC(C)CCCC(C)C)O2 (racemic) [(+/−) alpha-tocopherol, 2,5,7,8-tetramethyl-2-(4′,8′,12′-trimethyltridecyl)-6-chromanol]
- protection ([1]; 10 μg/ml (+/−) alpha-tocopherol by itself): about 15%
- cell death when tested individually [1]: over half of the cells died

Compound: Cc1c(C)c2c(c(C)c1O)CC[C@@](C)(CCC[C@H](C)CCC[C@H](C)CCCC(C)C)O2 (relative stereo) [alpha-tocopherol, [2R-2R*(4R*,8R*)]-3,4-dihydro-2,5,7,8-tetramethyl-2-(4,8,12-trimethyltridecyl)-2H-1-benzopyran-6-ol]
- cell death when tested individually [1]: about half of the cells died

Compound: COc1ccc(-c2cc(=O)c3c(O)cc(O[C@@H]4O[C@H](CO[C@@H]5O[C@@H](C)[C@H](O)[C@@H](O)[C@H]5O)[C@@H](O)[C@H](O)[C@H]4O)cc3o2)cc1O [Diosmin, reference compound]
- protective effect (GCL1 cells; concentrations less than 400 μM): ineffective
- Cell Death (GCL1 cells; [3]): 84.1% ± 1.6
- Cell Death (GCL1 cells; [4]): 84.9% ± 1.6
- Cell Death (GCL1 cells; [5]): 85.3% ± 0.6
- Cell Death (GCL1 cells; [6]): 85.2% ± 2.0
- Cell Death (GCL1 cells; [7]): 82.5% ± 2.6
- protection ([1]; diosmin 3.3-100 μM by itself, 4 hours): not protective by itself
- protection ([1]; diosmin alone 100 μM): no protection
- protection ([1]; diosmin by itself 33-100 μM): not effective

Compound: O=c1cc(-c2ccc(O)c(O)c2)oc2cc(O)cc(O)c12 [Luteolin, 2-(3,4-Dihydroxyphenyl)-5,7-dihydroxy-4H-1-benzopyran-4-one]
- cytoprotective activity (GCL1 cells; concentrations of about 60 μM and above): exhibited cytoprotective activity
- Cell Death (GCL1 cells; flavonoid 15.6 μM, antimycin A 100 nM, 4 hours): 78.0% ± 0.9
- Cell Death (GCL1 cells; flavonoid 31.25 μM, antimycin A 100 nM, 4 hours): 74.5% ± 1.2
- Cell Death (GCL1 cells; flavonoid 62.5 μM, antimycin A 100 nM, 4 hours): 69.0% ± 2.2
- Cell Death (GCL1 cells; flavonoid 125 μM, antimycin A 100 nM, 4 hours): 53.7% ± 5.4
- Cell Death (GCL1 cells; flavonoid 250 μM, antimycin A 100 nM, 4 hours): 33.4% ± 0.6
- abnormalities observed for a week [2]: the same results were reported

Compound: O=c1c(O)c(-c2ccc(O)c(O)c2)oc2cc(O)cc(O)c12 [Quercetin, 2-(3,4-Dihydroxyphenyl)-3,5,7-trihydroxy-4H-1-benzopyran-4-one]
- protective activity (GCL1 cells; concentrations of 25 μM and above): protective activity is apparent
- Cell Death (GCL1 cells; [3]): 68.1% ± 1.7
- Cell Death (GCL1 cells; [4]): 57.1% ± 2.4
- Cell Death (GCL1 cells; [5]): 22.0% ± 2.2
- Cell Death (GCL1 cells; [6]): 0.0% ± 0.9
- Cell Death (GCL1 cells; [7]): 1.0% ± 0.5

Compound: Nc1ncnc2c1ncn2[C@@H]1O[C@H](CO)[C@@H](O)[C@H]1O [adenosine, 9-β-D-ribofuranosyl-9H-purin-6-amine]
- protection (GCL1 cells; 11 μM adenosine alone): 17.9%

Compound: COc1ccc(-c2coc3cc(O)cc(O)c3c2=O)cc1 [biochanin A, 5,7-dihydroxy-4′-methoxyiso-flavone]
- cell death when tested individually [1]: about half of the cells died

Compound: C[N+](C)(C)CC(O)CC(=O)[O-].O=C(O)C(O)C(O)C(=O)O (centres unmarked) [carnitine tartate, carnitine tartrate]
- Cell Death (GCL1 cells; 10 mM carnitine tartrate alone, 4 hours, control 97.4%): 59.5%

Compound: O=c1cc(-c2ccccc2)oc2cc(O)cc(O)c12 [chrysin, 5,7-dihydroxy-2-phenyl-4H-1-benzopyran-4-one]
- Cell Death ([1]; 60 μM chrysin alone, control 72.9%): 50.1%

Compound: O=c1c(-c2ccc(O)cc2)coc2cc(O)ccc12 [daidzein, 7-hydroxy-3-(4-hydroxyphenyl)-4H-1-benzopyran-4-one]
- cell death when tested individually [1]: over half of the cells died

Compound: Cc1c(O)cc2c(c1C)O[C@](C)(CCC[C@H](C)CCC[C@H](C)CCCC(C)C)CC2 [gamma-tocopherol, 3,4-dihydro-2,7,8-trimethyl-2-(4,8,12-trimethyltridecyl)-2H-1-benzyopyran-6-ol]
- protection ([1]; gamma-tocopherol 0.03-0.3 μg/ml by itself): not protective by itself

Compound: NCC(=O)O [glycine, aminoacetic acid]
- protection (GCL1 cells; 100 μM glycine alone, 4 hours, control cell death 82.1%): 40.8%

Compound: COc1ccc([C@@H]2CC(=O)c3c(O)cc(O[C@@H]4O[C@H](CO[C@@H]5O[C@@H](C)[C@H](O)[C@@H](O)[C@H]5O)[C@@H](O)[C@H](O)[C@H]4O)cc3O2)cc1O [hesperidin, (S)-7-[[6O-(6-Deoxy-α-L-mannopyranosyl)-β-D-glucopyranosyl]oxy]-2,3-dihydro-5-hydroxy-2-(3-hydroxy-4-methoxyphenyl)-4H-1-benzopyran-4-one]
- abnormalities observed for a week [2]: the same results were reported
- toxicity ([2]; orally administered to a mouse at 1000 mg/kg (U.S. Pat. No. 5,763,414)): no toxicity
- effects on liver function ([2]; tests using mice): no adverse effects on liver function
- toxicity or mitogenicity ([2]; tests using mice): little toxicity or mitogenicity

Compound: O=C(CO)[C@H](O)[C@H](O)CO [ribulose]
- reduction in cell death (GCL1 cells; 1.25 mM ribulose by itself, 4 hours): 4.4%
- reduction in cell death (GCL1 cells; 10 mM ribulose alone, 4 hours): 26.5%

Reference: patent US6528042B1, “Compositions of flavonoids for use as cytoprotectants and methods of making and using them” (Galileo Laboratories, Inc., priority 1999, dated 2003)
